Test results: patent US7045532B2 (Millennium Pharmaceuticals, Inc., priority 1999, dated 2006)
Read-outs that look alike come from different tables or passages of the source.

Biological target: T1, ACE-2 (Homo sapiens, UniProt Q9BYF1)
T1 construct: a stop codon inserted after the serine immediately preceding the transmembrane domain; made in house; host or cells: CHO K1 cells (transient transfection, purified from conditioned medium)
Experiment: ACE-2 Competitive Substrate Assay (ACS Assay)
Type: biochemical

[1] = Ki class, compounds tested in 5% DMSO, 12 compound concentrations, Ki=Kiapp/(1+[S]/Km), read-out: Human ACE-2 Activity
[2] = Table 3, very good ACE-2 inhibiting compounds, species not given, read-out: ACE-2 Activity, Ki

T1 sequence (Q9BYF1 18-740 limits assumed): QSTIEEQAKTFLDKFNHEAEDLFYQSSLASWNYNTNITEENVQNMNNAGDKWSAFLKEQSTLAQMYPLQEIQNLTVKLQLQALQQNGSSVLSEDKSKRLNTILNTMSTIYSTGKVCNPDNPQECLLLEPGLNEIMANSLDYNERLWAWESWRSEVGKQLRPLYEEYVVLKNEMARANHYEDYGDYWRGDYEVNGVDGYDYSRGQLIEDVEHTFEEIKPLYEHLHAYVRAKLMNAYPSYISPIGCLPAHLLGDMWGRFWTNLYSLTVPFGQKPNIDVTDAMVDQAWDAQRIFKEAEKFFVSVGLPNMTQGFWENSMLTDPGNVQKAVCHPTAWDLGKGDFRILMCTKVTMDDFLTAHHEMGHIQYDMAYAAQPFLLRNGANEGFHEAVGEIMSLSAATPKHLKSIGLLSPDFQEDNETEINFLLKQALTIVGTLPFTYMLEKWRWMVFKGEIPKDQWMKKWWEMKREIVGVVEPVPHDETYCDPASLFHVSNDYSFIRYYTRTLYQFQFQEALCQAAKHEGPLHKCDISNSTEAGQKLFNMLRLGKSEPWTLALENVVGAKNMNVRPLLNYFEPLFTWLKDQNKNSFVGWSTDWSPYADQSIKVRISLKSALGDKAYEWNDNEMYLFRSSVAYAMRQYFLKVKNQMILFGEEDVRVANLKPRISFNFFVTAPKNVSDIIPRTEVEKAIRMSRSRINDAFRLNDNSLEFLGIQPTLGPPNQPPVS

Compound | Ki [1] [nM] | Ki [2] [nM] | Ki (Ki class, compounds tested in 5% DMSO, 12 concentrations, read-out: Human ACE-2 Activity) [nM]
CC(C)C[C@H](N[C@@H](Cc1cncn1Cc1ccc(I)cc1)C(=O)O)C(=O)O [NI, 2-[1-Carboxy-2-[3-(4-iodobenzyl)-3H-imidazol-4-yl]-ethylamino]-4-methyl-pentanoic acid] | < 100 | < 50 | –
CC(C)C[C@H](N[C@@H](Cc1cncn1Cc1cc(F)cc(F)c1)C(=O)O)C(=O)O [NJ, (S,S) 2-{1-Carboxy-2-[3-(3,5-difluoro-benzyl)-3H-imidazol-4-yl]-ethylamino}-4-methyl-pentanoic acid] | < 100 | < 50 | –
CC(C)C[C@H](N[C@@H](Cn1ccn(CCc2ccc(F)cc2)c1=O)C(=O)O)C(=O)O [NK, 2-(1-Carboxy-2-[3-[2-(4-fluoro-phenyl)-ethyl]-2-oxo2,3-dihydro-imidazol-1-yl)-ethylamino]-4-methyl-pentanoic acid] | 100 to 500 | – | –
CC(C)C[C@H](N[C@@H](Cn1ccn(CC2CCCCC2)c1=O)C(=O)O)C(=O)O [NL, 2-[1-Carboxy-2-(3-cyclohexylmethyl-2-oxo-2,3-dihydro-imidazol-1-yl)-ethylamino]-4-methyl-pentanoic acid] | 100 to 500 | – | –
CC(C)C[C@H](N[C@@H](Cc1cncn1Cc1cc(Cl)cc(Cl)c1)C(=O)O)C(=O)OC(C)(C)C [NM, 2-[1-Carboxy-2-[3-(3,5-dichloro-benzyl)-3H-imidazol-4-yl]-ethylamino)4-methyl-pentanoic acidtert-butyl ester] | < 100 | < 50 | –
Cc1ccc(-c2ccc(C[C@H](N[C@@H](CC(C)C)C(=O)O)C(=O)O)o2)cc1 [NO, (S,S)-2[1-Carboxy-2-(5-p-tolyl-furan-2-yl)-ethylamino]-4-methyl-pentanoic acid] | 100 to 500 | – | –
CC(C)C[C@H](N[C@@H](Cn1ccn(CCc2cccc(F)c2)c1=O)C(=O)O)C(=O)O [NP, 2-(1-Carboxy-2-{3-[2-(3-fluoro-phenyl)-ethyl]-2-oxo2,3-dihydro-imidazol-1-yl]-ethylamino)-4-methyl-pentanoic acid] | 100 to 500 | – | –
CC(C)C[C@H](N[C@@H](Cn1ccn(Cc2ccc(F)cc2)c1=O)C(=O)O)C(=O)O [NQ, 2-{1-Carboxy-2-[3-(4-fluoro-benzyl)-2-oxo-2,3-dihydro-imidazol-1-yl]-ethylamino}-4-methyl-pentanoic acid] | 100 to 500 | – | –
CC(C)C[C@H](N[C@@H](Cc1ccc(-c2ccccc2)o1)C(=O)O)C(=O)O [NR, (S,S)-2-[1-Carboxy-2-(5-phenyl-furan-2-yl)-ethylamino]-4-methyl-pentanoic acid] | 100 to 500 | – | –
CC(C)C[C@H](N[C@@H](Cc1ccc(-c2cc(Cl)cc(Cl)c2)o1)C(=O)O)C(=O)O [NS, (S,S)-2-{1-Carboxy-2-[5-(3,5-dichlorophenyl)-furan-2-yl]-ethylamino}-4-methyl-pentanoic acid] | 100 to 500 | – | –
Cc1cc(C)cc(-c2ccc(C[C@H](N[C@@H](CC(C)C)C(=O)O)C(=O)O)o2)c1 [NT, (S,S)-2-{1-Carboxy-2-[5-(3,5-dimethyl-phenyl)-furan-2-yl]-ethylamino}-4-methyl-pentanoic acid] | 100 to 500 | – | –
CC(C)C[C@H](N[C@@H](Cc1ccc(-c2cc(F)cc(F)c2)o1)C(=O)O)C(=O)O [NU, (S,S)-2-{1-Carboxy-2-[5-(3,5-difluoro-phenyl)-furan-2-yl]-ethylamino}-4-methyl-pentanoic acid] | > 500 | – | –
CC(C)C[C@H](N[C@@H](Cc1ccc(-c2ccsc2)o1)C(=O)O)C(=O)O [NV, (S,S)-2-[1-Carboxy-2-(5-thiophen-3-yl-furan-2-yl)-ethylamino]-4-methyl-pentanoic acid] | > 500 | – | –
Cc1ccc2nc(NC(=O)C[C@H](N[C@@H](CC(C)C)C(=O)O)C(=O)O)sc2c1 [NW, 2-[1-Carboxy-2-(6-methyl-benzothiazol-2-ylcarbamoyl)-ethylamino]-4-methyl-pentanoic acid] | 100 to 500 | < 50 | –
CC(C)C[C@H](N[C@@H](Cc1ccc(O)cc1)C(=O)O)C(=O)O [NX, 2-[1-Carboxy-2-(4-hydroxy-phenyl)-ethylamino]-4-methyl-pentanoic acid] | > 500 | – | –
CC(C)C[C@H](N[C@@H](Cc1cccc(OCc2cc(Cl)cc(Cl)c2)c1)C(=O)O)C(=O)O [NY, 2-[1-Carboxy-2-[3-(3,5-dichloro-benzyloxy)-phenyl]-ethylamino]-4-methyl-pentanoic acid] | < 100 | 50 to 100 | –
CC(C)C[C@H](N[C@@H](Cc1cccc(OCc2ccncc2)c1)C(=O)O)C(=O)O [NZ, S,S-2-{1-Carboxy-2-[3-(pyridin-4-ylmethoxy)-phenyl]-ethylamino}-4-methyl pentanoic acid] | > 500 | – | –
CC(N[C@@H](Cc1ccccc1)C(=O)O)C(=O)O (stereo partly drawn) [O, 2-(1-Carboxy-ethylamino)-3-phenyl-propionic acid] | – | – | > 500
Cc1cc(C)cc(COc2cccc(C[C@H](N[C@@H](CC(C)C)C(=O)O)C(=O)O)c2)c1 [OA, 2-[1-Carboxy-2-[3-(3,5-dimethyl-benzyloxy)-phenyl]-ethylamino]-4-methyl-pentanoic acid] | > 500 | – | –
CC(C)C[C@H](N[C@@H](Cc1cccc(OCc2ccc(Cl)cc2)c1)C(=O)O)C(=O)O [OB, 2-[1-Carboxy-2-[3-(4-chloro-benzyloxy)-phenyl)-ethylamino]-4-methyl-pentanoic acid] | 100 to 500 | – | –

Compound | Ki [1] [nM] | Ki [2] [nM] | Ki (Ki class, compounds tested in 5% DMSO, 12 concentrations, read-out: Human ACE-2 Activity) [nM]
CC(C)CC(NC(Cc1cccc(OCc2ccc(C(F)(F)F)cc2C(F)(F)F)c1)C(=O)O)C(=O)O (stereo not drawn) [OC, 2-{2-[3-(2,4-Bis-trifluoromethyl-benzyloxy)-phenyl]-1-carboxy-ethylamino}-4-methyl-pentanoic acid] | > 500 | – | –
CC(C)C[C@H](N[C@@H](Cc1ccn(-c2ccccc2)n1)C(=O)O)C(=O)O [OD, 2-[1-carboxy-2-(1phenyl-1H-pyrazol-3-yl)-ethylamino]-4-methyl-pentanoic acid] | 100 to 500 | – | –
CC(C)C[C@H](N[C@@H](Cn1ccn(Cc2cccc(Cl)c2)c1=O)C(=O)O)C(=O)O [OE, (S,S)-2-{1-Carboxy-2-[3-(3-chloro-benzyl)-2-oxo-2,3-dihydro-imidazol-1-yl]-ethylamino}-4-methyl-pentanoic acid] | < 100 | < 50 | –
CC(C)C[C@H](N[C@@H](Cc1ccc(Cc2cc(Cl)cc(Cl)c2)cc1)C(=O)O)C(=O)O [OF, (S,S)-2-{1-Carboxy-2-[4-(3,5-dichloro-benzyl)-phenyl]-ethylamino}-4-methyl-pentanoic acid] | > 500 | – | –
CC(C)C[C@H](N[C@@H](Cc1ccc(Cc2ccccc2)cc1)C(=O)O)C(=O)O [OG, (S,S)-2-[2-(4-Benzyl-phenyl)-1-carboxy-ethylamino]-4-methyl-pentanoic acid] | < 100 | 50 to 100 | –
CC(C)C[C@H](N[C@@H](CC(=O)Nc1nc(-c2ccccc2)cs1)C(=O)O)C(=O)O [OH, (S,S)-2-[1-Carboxy-2-(4-phenyl-thiazol-2-ylcarbamoyl)-ethylamino]-4-methyl-pentanoic acid] | > 500 | – | –
COc1ccc(-c2ccc(C[C@H](N[C@@H](CC(C)C)C(=O)O)C(=O)O)o2)cc1 [OI, (S,S)-2-{1-Carboxy-2-[5-(4-methoxy-phenyl)-furan-2-yl]-ethylamino}-4-methyl-pentanoic acid] | 100 to 500 | – | –
CC(C)C[C@H](N[C@@H](Cc1ccc(-c2ccc3c(c2)OCO3)o1)C(=O)O)C(=O)O [OJ, (S,S)-2-[2-(5-Benzo[1,3]dioxol-5-yl-furan-2-yl)-1-carboxy-ethylamino]-4-methyl-pentanoic acid] | 100 to 500 | – | –
CC(C)C[C@H](N[C@@H](Cc1ccc(-c2cccc3ccccc23)o1)C(=O)O)C(=O)O [OK] | 100 to 500 | – | –
CC(C)C[C@H](N[C@@H](Cc1ccc(-c2ccc(Cl)cc2)o1)C(=O)O)C(=O)O [OL, (S,S)-2-{1-Carboxy-2-[5-(4-chloro-phenyl)-furan-2-yl]-ethylamino}-4-methyl-pentanoic acid] | > 500 | – | –
CC(C)C[C@H](N[C@@H](Cc1ccc(-c2ccc(C(F)(F)F)cc2)o1)C(=O)O)C(=O)O [OM, (S,S)-2-{1-Carboxy-2-[5-(4-trifluoromethyl-phenyl)-furan-2-yl]-ethylamino}-4-methyl-pentanoic acid] | > 500 | – | –
CC(C)COc1cccc(C[C@H](N[C@@H](CC(C)C)C(=O)O)C(=O)O)c1 [ON, 2-[1-Carboxy-2-(3-isobutoxy-phenyl)-ethylamino]-4-methyl-pentanoic acid] | > 500 | – | –
CC(C)C[C@H](N[C@@H](Cc1cccc(OCc2cccc(Cl)c2)c1)C(=O)O)C(=O)O [OO, S,S-2-{1-Carboxy-2-[3-(3-chloro-benzyloxy)-phenyl]-ethylamino}-4-methyl-pentanoic acid] | < 100 | 50 to 100 | –
CC(C)C[C@H](N[C@@H](Cc1cccc(OCc2ccccc2Cl)c1)C(=O)O)C(=O)O [OP, S,S-2-{1-Carboxy-2-[3-(2-chloro-benzyloxy)-phenyl]-ethylamino}-4-methyl-pentanoic acid] | > 500 | – | –
CC(C)C[C@H](N[C@@H](CCc1ccc(OCc2ccccc2)cc1)C(=O)O)C(=O)O [OQ, (S,S) 2-[3-(4-Benzyloxy-phenyl)-1-carboxy-propylamino]-4-methyl-pentanoic acid] | 100 to 500 | – | –
CC(C)C[C@H](N[C@@H](Cc1ccn(-c2ccccc2)n1)C(=O)OC(C)(C)C)C(=O)O [OR] | > 500 | – | –
CC(C)C[C@H](N[C@@H](Cc1ccc(-c2cccc(Cl)c2)o1)C(=O)O)C(=O)O [OS, (S), (S)-2-{1-Carboxy-2-[5-(3-chloro-phenyl)-furan-2-yl]-ethylamino}-4-methyl-pentanoic acid] | > 500 | – | –
CC(C)C[C@H](N[C@@H](Cn1ccn(Cc2cccc(F)c2)c1=O)C(=O)O)C(=O)O [OT, 2-{1-Carboxy-2-[3-(3-fluoro-benzyl)-2-oxo-2,3-dihydro-imidazol-1-yl]-ethylamino]-4-methyl-pentanoic acid] | < 100 | 50 to 100 | –
CC(C)C[C@H](N[C@@H](Cn1ccn(Cc2ccc(F)c(F)c2)c1=O)C(=O)O)C(=O)O [OU, 2-[1-Carboxy-2-[3-(3,4-difluoro-benzyl)-2-oxo-2,3-dihydro-imidazol-1-yl]-ethylamino]-4-methyl-pentanoic acid] | 100 to 500 | – | –
